According to US10927075B2, “Compositions and methods relating to the treatment of cancer, autoimmune disease, and neurodegenerative disease” (THE JACKSON LABORATORY, priority 2014, dated 2021):
“Also recorded” adds a separate entry of the source.

Experiments:
CH12-F3 cells = experiment: Radiosensitivity (viability after ionizing irradiation); assay type: cell-based, mouse; settings: 50 nM, 100 nM, or 150 nM; 0 or 2.5Gy
Description: FIG. 13A depicts a viability analysis of C-1523-treated CH12-F3 cells 24 h after 0 or 2.5 Gy IR. Data are normalized to the fraction of cells for each IR dose that received DMSO vehicle only; error bars represent the SEM for three independent experiments. FIG. 13B depicts detection of RAD51 by immunofluorescence in primary mouse B cells 24 h after 0 or 2.5 Gy IR and treatment with C-1523 (100 nM) or vehicle. RAD51 staining is in red, nuclear DNA (DAPI-stained) is in blue. Scale bar: 10 μM. FIG. 13C depicts the quantification of cells with nuclear RAD51 (RAD51+) from FIG. 13B. Error bars represent the SEM for three independent experiments. FIG. 13D depicts the quantitation of RAD51 expression in nuclear and cytoplasmic fractions as determined by Western Blot. Values represent the average of three independent experiments and error bars are the SEM. FIG. 13E depicts the immunofluorescent detection of NF-κB localization in primary murine B cells. […] FIG. 13F depicts the quantitation of nuclear NF-κB staining from FIG. 13E. […]
C-1523 disrupts RAD51 nucleocytoplasmic distribution and damage induced relocalization. To assess the DNA repair inhibitory activity of C-1523, radiosensitivity was measured in the mouse leukemia cell line, CH12-F3, with or without C-1523. […] Cells were allowed to recover in culture in the presence of C-1523 (or vehicle control) and viable cells were quantified. […]

[1] = tested on: primary, activated WT versus AID−/− cells; experiment: RNASeq and Ingenuity Pathways Analysis; assay type: cell-based, mouse; settings: 100 nM, 60 hours after activation
Description: FIG. 17A depicts a schematic for the fold-change (FC) analysis performed on RNASeq data from the indicated treatment groups. RNA was prepared from cells 60 hours after activation (αCD40 and IL-4) and treatment with DMSO or 100 nM C-1523. Pathway analysis was performed by Ingenuity Pathway Analysis (IPA). FIGS. 17B-17D depict the top 10 pathways for the Unique to FC1 (FIG. 17B) and FC2 (FIG. 17C) analysis and all pathways for the FC1>FC2 (DOWN) and F2>FC1 (UP) analysis (FIG. 17D). Within each bar (in white), is the ratio of genes from that pathway implicated by IPA. The dashed line indicates the 0.05 significance threshold for significant (bars crossing it) vs non-significant pathways. The mechanism of cell death is non-apoptotic and is via mitotic catastrophe.
C-1523 induces non-apoptotic cell death via non-apoptotic mitotic catastrophe. The surprising lack of apoptotic cell death induced by C-1523 prompted us to evaluate gene expression signatures to identify other potential cell death pathways. […]
RNASeq Analysis. […] The filtered and trimmed reads were then aligned to mm10 using tophat (v2.0.7). The aligned bam file was then passed through Cufflinks (v2.0.2) and reads per gene are counted using htseq-count. edgeR. […]

[2] = tested on: Primary mouse B cells (WT); experiment: Micronuclei assay; assay type: cell-based; settings: 100 nM, WT cells, 3 days
AID+/+ or AID−/− B-cells = experiment: Cell cycle analysis by propidium iodide staining and flow cytometry; assay type: cell-based; settings: 100 nM, up to 96 hours
Description: (§1) AID+/+ or AID−/− B-cells were cultured with 100 nM and cell cycle profiles were determined by propidium iodide staining and flow cyotmetry at intervals up to 96 hours. Non-activated (CD40) cells were used as a negative control; activated cells treated with the microtuble poison colcemid (ACT+colcemid) were used as a positive control.
as §1, with “control. Nuclei fragmentation analysis of primary, AID expressing B-cells treated with 100 nM C-1523 was conducted (FIG. 22).” for “control.”

CC(=O)Nc1ccc(/C=C/c2ccc(NC(=S)NC(C)C)cc2S(=O)(=O)O)c(S(=O)(=O)O)c1 [C-1523, (E)-5-acetamido-2-(4-(3-isopropylthioureido)-2-sulfonatostyryl)benzenesulfonate]
sensitivity to ionizing irradiation (CH12-F3 cells): sensitivity to ionizing irradiation at every concentration tested
most significantly altered pathways (IPA) [1]: did not identify any previously annotated cell death pathways
increase in micronuclei compared to DMSO [2]: 9 fold
effect on cell cycle (AID+/+ or AID−/− B-cells): minimal effect on cell cycle; also recorded: minimal differences
